From patent US5356886A, “Antiviral phosphono-alken derivatives of purines” (Beecham Group p.l.c., priority 1990, dated 1994)
Values after ≈ are worked out from the molar mass of the structure shown. Like-named read-outs stand apart in the source and are kept apart here.

Columns and labels:
Format in all cases: cell-based
Visna Virus = assay: CPE Inhibition Test (Established Monolayer) for Lentiviruses, visna virus (strain K184) in sheep choroid plexus cells; settings: Visna-maedi virus; visna virus strain K184, SCP cells; read-out: MIC (minimum concentration giving complete protection of the cell monolayers)
Protocol: 3×10^4 sheep choroid plexus (SCP) cells were plated into individual wells of a 96 well microtitre plate in 100 μl of Eagle's MEM with Hanks' salts containing 10% heat inactivated foetal calf serum (FCS). When monolayers had become established (after 1 or 2 days growth) they were washed with 200 μl of maintenance medium (Eagle's MEM with Hanks' salts containing 0.5% FCS) and infected with 100 μl of visna virus (strain K184) in maintenance medium (30 TCID50/ml). Test samples were diluted with maintenance medium in further 96 well microtitre plates over the range 200-0.06 μg/ml by 3-fold dilution steps. 100 μl of the diluted samples was then transferred directly onto virus-infected monolayers (final concentration range therefore 100-0.03 μg/ml) and […] containing 5% CO2 until virus-induced CPE was maximal in the untreated virus-infected controls (usually 12-14 days). The plates were fixed with formal saline and stained with crystal violet. Virus-induced CPE was then scored microscopically and the minimum concentration of sample giving complete protection of the cell monolayers (MIC) determined.

HSV-1 = assay: Plaque Reduction Test for Herpes Simplex Virus 1 (strain SC16) in MRC-5 cells; settings: Human alphaherpesvirus 1, MRC5
Protocol: (§1) MRC-5 cells were grown to confluence in 24 well multi-dishes (well diameter=1.5 cm). The drained cell monolayers were each infected with approximately 50 infectious particles of herpes simplex virus 1 (HSV-1; strain SC16) or herpes simplex virus 2 (HSV-2; strain MS) in 100 μl of phosphate-buffered saline. The virus was adsorbed for 1 hour at room temperature. After adsorption, residual inoculum was removed from each well and replaced with 0.5 ml of Eagle's MEM containing 5% newborn calf serum and 0.9% agarose (A37). Once the agarose had set, dilutions of the test compound, which had been prepared in Eagle's MEM (containing 5% newborn calf serum), were added, each well receiving 0.5 ml of liquid overlay. The test compound was diluted to give the following series of concentrations: 200, 60, 20, 6 . . . 0.06 μg/ml; final concentrations in the assay ranged, therefore, between 100 μg/ml and 0.03 μg/ml. The infected cultures were incubated at 37° C. in a humidified atmosphere of 5% CO2 until plaques were clearly visible (usually 1 day).
(§2) Cultures from 1 and 2 were fixed in formal saline, the agarose overlays were carefully washed off, and then the cell monolayers were stained with carbol fuchsin. A stereo microscope was used to count plaques. The IC50 (concentration of drug which inhibits the number of plaques formed by 50% relative to the number of plaques observed in virus control monolayers) of the test compound was calculated. In addition, the monolayers were examined for evidence of drug-induced cytotoxicity; the minimum concentration at which cytotoxicity occurs was recorded.

HSV-2 = assay: Plaque Reduction Test for Herpes Simplex Virus 2 (strain MS) in MRC-5 cells; settings: Human alphaherpesvirus 2, MRC5
Protocol: as §1, §2

VZV = assay: Plaque Reduction Test for Varicella-Zoster Virus (Ellen strain) in MRC-5 cells; settings: Human alphaherpesvirus 3, MRC5
Protocol: as §1, with “varicella zoster” for “herpes simplex”, “(VZV; Ellen strain)” for “1 (HSV-1; strain SC16) or herpes simplex virus 2 (HSV-2; strain MS)”, “heat-inactivated foetal” for “newborn”, “(5 or 6 days).” for “(usually 1 day).”
as §2

CMV = assay: Plaque Reduction Test for Cytomegalovirus (AD-169 strain) in MRC-5 cells; settings: Human betaherpesvirus 5, AD169, MRC5
Protocol: MRC-5 cells were grown to confluence in 24 well multi-dishes (well diameter=1.5 cm). The drained cell monolayers were each infected with approximately 50 infectious particles of cytomegalovirus (CMV; AD-169 strain) in 100 μl of phosphate-buffered saline. The virus was adsorbed for 1 hour at room temperature. After adsorption, residual inoculum was removed from each well and replaced with 1 ml of Eagle's MEM containing 10% heat inactivated foetal calf serum and 0.9% agarose (A37). Once the agarose had set, dilutions of the test compound, which had been prepared in Eagle's MEM (containing 10% heat-inactivated calf serum), were added, each well receiving 1 ml of liquid overlay. The test compound was diluted to give the following series of concentrations: 200, 60, 20, 6 . . . 0.06 μg/ml; final concentrations in the assay range, therefore, between 100 μg/ml and 0.03 μg/ml. The infected cultures were incubated at 37° C. in a humidified atmosphere containing 5% CO2 until plaques were clearly visible (about 12 days). The cultures are fixed in formol saline, the agarose overlays were carefully washed off, and then the cell monolayers were stained with carbol fuchsin. A stereo microscope was used to count plaques. The IC50 (concentration of drug which inhibits the number of plaques formed by 50% relative to the number of plaques observed in virus control monolayers) of the test compound was calculated. In addition, the monolayers were examined for evidence of drug-induced cytotoxicity; the minimum concentration at which cytotoxicity occurs was recorded.

FIV = assay: Test for Feline Immunodeficiency Virus (FIV Glasgow 8) in Crandell Feline Kidney cells; settings: FIV Glasgow 8, Crandell Feline Kidney cells, 11-14 days, read-out: MIC (minimum concentration of drug inhibiting syncitial production)
Protocol: (§3) Drug stocks were diluted to the appropriate concentration, in medium (e.g. 10 mg/ml to 200 μg/ml). 150 μl of each drug was dispersed in triplicate, across the top row of a microtitre plate (150 μl of media for virus and cell control, vc and cc). 100 μl of medium was dispersed into all other wells. The wells were serially diluted moving down the plate, removing 50 μl from each well and transferring to the next row. 50 μl was discarded from the bottom wells.
(§4) Trypsinisation was carried out from a confluent cell monolayer of Crandell Feline Kidney cells, in 10% trypsin, followed by resuspension in media at 1×10^6 per ml, ensuring that a single cell suspension is achieved. (Media: 90% 1×RPMI, 25 mM hepes buffer; 10% Foetal calf serum; 2% Glutamine; 2% penecillin/streptomycin.)
(§5) FIV Glasgow 8 virus was diluted to 4× the required virus challenge in medium (40 TCID50 /ml). The virus infected medium was mixed with an equal volume of cell suspension, 100 μl of which was aliquoted into each well of the drug plate, except cell control. 100 μl of cell suspension at 5×10^4 per ml was added to the latter. This gives a final cell concentration of 2.5×10^4 per ml, and drug range 100-0.03 μg/ml. The plates were incubated at 37° C., 5% CO2 in an air humidified incabator for 11-14 days. The cells were fixed by immersing the plates in formoli saline (10% formaldehyde; 10% 1.5M NaCl; 80% water) for 1 hour minimum. The cells were stained with 10% crystal violet for 15 minutes.
(§6) The assay was scored by looking for presence of syncitia and, virus induced cytopathic effect in the cell monolayers, under a microscope. Results are given as the minimum concentration of drug inhibiting syncitial production, minimum inhibitory concentration, MIC.

[1] = Cytotoxicity for the cell monolayers in the FIV test; settings: cat, crandell feline kidney cells
Protocol: as §3, §4, §5, §6

HIV [2] = assay: HIV Suppression test, viral antigen (core protein p24, sandwich ELISA) in peripheral human lymphocytes; settings: Human immunodeficiency virus 1, Lymphocyte, 96 h; Concn. 10 μM; read-out: % Inhibition on Day 4 after infection, Viral Antigen
Protocol: (§7) Peripheral human lymphocytes were prepared, cultivated, and harvested as above. Following the determination of the lymphocyte surface markers, unstimulated and mitogen stimulated cells were combined in a ratio of 1:2.
(§8) Under safety conditions these cells are infected with a standard preparation of HIV. The cells are sedimented by centrifugation. The supernatant was discarded and cells were resuspended in the HIV inoculum.
(§9) This inoculum is a liquid suspension of HIV-1 strain virus, pretested and adjusted to a titer that results in a synthesis of viral core protein p24 of >100 ng/ml at day four following infection of human lymphocytes according to the protocol.
(§10) 3×10^8 lymphocytes were resuspended in 1 ml HIV inoculum and incubated at 37° C. for 60 minutes. Subsequently, the cells were washed two times with 50 ml of culture medium and resuspended in culture medium containing 10 units/ml of human recombinant interleukin-2 to yield a cell concentration of 2×10^6 cells/ml. 100 μof this cell suspension was added to each well of the microtiter plates containing the diluted solutions of the compounds. The microtiter plates were cultivated in an incubator with a humidified atmosphere and 5% CO2 at 37° C.
(§11) Accordingly, a fraction of lymphocytes was mock-infected with the same virus preparation that was heat inactivated (30 minutes at 56° C.) prior to infection.
(§12) On each of the days 2,3 and 4 post infection one of the microtiter plates which had been established in triplicate was prepared for determination of viral replication. Viral RNA is determined within the cells whereas the viral core protein p24 was detected in the supernatant of the lymphocyte culture.
(§13) Accordingly, 150 μl of supernatant were removed from each well and transferred to the well of a microtiter plate containing 50 μl/well of SDS (sodium dodecylsulfate, 0.08%). These plates were stored frozen. 50 μl of stop solution (1% SDS, 20 mM sodium acetate, pH 5.0, and 200 μg/ml heparin) were added to the cells remaining in each well. The plates were stored frozen.
(§14) The concentration of p24 synthesized by the HIV infected cells was determined by means of a sandwich ELISA, while the concentration of viral RNA was quantitated by nucleic acid hybridisation, using a ^32 P-labelled DNA probe for the gag/pol region of the viral genome. Absolute levels of viral antigen and RNA in drug treated samples were compared with untreated, virus-infected controls and the percentage inhibition calculated.

HIV [3] = assay: HIV Suppression test, viral RNA (nucleic acid hybridisation) in peripheral human lymphocytes; settings: Human immunodeficiency virus 1, Lymphocyte, 96 h; Concn. 10 μM; read-out: % Inhibition on Day 4 after infection, Viral RNA
Protocol: as §7, §8, §9, §10, §11, §12, §13, §14

[4] = read-out: concentration at which cytotoxicity was noted
[5] = no cytotoxicity noted with concentrations up to this value, read-out: cytotoxicity for the cell monolayers

Row | SMILES | MIC (Visna Virus) [µg/mL] | IC50 (HSV-1) [µg/mL] | IC50 (HSV-2) [µg/mL] | IC50 (VZV) [µg/mL] | IC50 (CMV) [µg/mL] | MIC (FIV) [µg/mL] | MCC [1, 4] [µg/mL] | inhibition at 10 µM (HIV [2]) [%] | inhibition at 10 µM (HIV [3]) [%] | MCC [1, 5] [µg/mL]
1 | Nc1ncnc2c1ncn2CC/C=C/P(=O)(O)O [Example 5, (E)-9-[4-Phosphonobut-3-enyl]adenine] | 1 (≈ 3.71 µM) |  |  |  |  |  |  |  |  | 
2 | Nc1nc2c(ncn2CC/C=C/P(=O)(O)O)c(=O)[nH]1 [Example 6, (E)-9-[4-phosphonobut-3-enyl]guanine] | 0.1 (≈ 0.351 µM) | 100 (≈ 351 µM) | 26 (≈ 91.2 µM) | 55 (≈ 193 µM) | 15 (≈ 52.6 µM) |  |  |  |  | 
3 | Nc1ncnc2c1ncn2CC(/C=C/P(=O)(O)O)CO (stereo not drawn) [Example 17, (E)-9-(2-Hydroxymethyl-4-phosphonobut-3-enyl)adenine] |  | 20 (≈ 66.8 µM) | 29 (≈ 96.9 µM) | < 3 | 11 (≈ 36.8 µM) | 0.03 (≈ 0.1 µM) | 10 |  |  | 
4 | Nc1ncnc2c1ncn2OCC/C=C/P(=O)(O)O [Example 3, (E)-9-(4-phosphonobut-3-enyloxy)adenine] | 10 (≈ 35.1 µM) |  |  |  |  | 10 (≈ 35.1 µM) |  | 47 | 44 | > 100
5 | Nc1ncnc2c1ncn2OCC/C=C\P(=O)(O)O [Example 10, (Z)-9-(4-Phosphonobut-3-enyloxy) adenine] | 100 (≈ 351 µM) |  |  |  |  |  |  |  |  | 
6 | Nc1nc(N)c2ncn(CC/C=C/P(=O)(O)O)c2n1 [Example 8, (E)-2,6-Diamino-9-(4-phosphonobut-3-enyl)purine] | 0.3 (≈ 1.06 µM) |  |  |  |  |  |  | 37 | 62 | 
7 | Nc1nc2c(ncn2OCC/C=C\P(=O)(O)O)c(=O)[nH]1 [Example 11, (Z)-9-(4-phosphonobut-3-enyloxy)guanine] | < 0.03 | 100 (≈ 332 µM) | > 100 | > 100 | 55 (≈ 183 µM) |  |  | 3 | 33 | 
8 | Nc1ncnc2c1ncn2OCC(/C=C/P(=O)(O)O)CO (stereo not drawn) [Example 15, (E)-9-(2-hydroxymethyl-4-phosphonobut-3-enyloxy) adenine] |  |  |  |  |  | 30 (≈ 95.2 µM) |  |  |  | > 100
9 | Nc1nc2c(ncn2OCC(/C=C/P(=O)(O)O)CO)c(=O)[nH]1 (stereo not drawn) [Example 13, (E)-9-(2-hydroxymethyl-4-phosphonobut-3-enyloxy)guanine] |  | 100 (≈ 302 µM) | 60 (≈ 181 µM) | 5 (≈ 15.1 µM) | 15 (≈ 45.3 µM) | 0.1 (≈ 0.302 µM) | 1 |  |  | 
